Laboratory results taken from patent publication US10758541B2, “Formulations of milciclib and therapeutic combinations of the same for use in the treatment of cancer” (Tiziana Life Sciences PLC, priority 2017, dated 2020).

Columns and labels:
HepG2.2.15 cells [1] = experiment: IC50 values by cell proliferation assay (WST-1); format: cell-based; details: Homo sapiens, HepG2.2.15; individual inhibitor, 72 hours, WST-1; read-out: HepG2.2.15 IC50
Excerpt: See Shailubhai, K et al. “Atiprimod is an inhibitor of cancer cell proliferation and angiogenesis.” J Exp Ther Oncol. 2004; 4: 267-279; and Choudhari et al. “Deactivation of Akt and STAT3 signaling promotes apoptosis, inhibits proliferation, and enhances the sensitivity of hepatocellular carcinoma cells to an anticancer agent, atiprimod” Molecular Cancer Therapeutics. 2007; 6: 112-121. References are incorporated herein in their entireties.
HepG2.2.15 cells are derived from the human hepatoblastoma cell line HepG2.
Cells (MHCC97H, MHCC97L, and HepG2.2.15) were cultured for 24 hours in 2% FBS and then were trypsinized, resuspended in 2% FBS and seeded in a rat collagen coated 96-well plate at a density of 10,000 cells/100 μl/well, a day before the experiment and cultured at 37° C. in 5% CO2. The cells were treated the next day with milciclib, sorafenib, regorafenib, sunitinib, and lenvatinib, individually or in combination in DMEM/F12+2% FBS+for 72 hours prior to the addition of WST-1 reagent. About 100 μL media was added to control well. After cells had been cultured for 72 hours with different drug concentrations, cells were washed 3 times with sterile 1× Phosphate buffered saline (PBS). To determine cell proliferation by the colorimetric test, 10 μL of WST-1 reagent (Sigma Aldrich, St Louis, Mo.) was added in 100 μL cell culture media and incubated for 2 hours in 5% CO2 at 37° C. At the end of incubation period, the plate was placed on a plate shaker for 1 minute and was monitored using a spectrophotometer at an optical density of 450 nm with a reference wavelength of 600 nm using Tecan F200 and iControl software. IC50 values were determined using GraphPad Prism (GraphPad Software, La Jolla, Calif.). Each experiment was performed in duplicate and repeated 2 times.

Alphafetoprotein (AFP) = experiment: AFP ELISA assay in MHCC97H cells; format: cell-based, human; details: 1.3 μM, 72 hours, vs vehicle control
Method: (§1) MHCC97H cells were seeded at a density of 500,000 cells/2 mL/well on a 6 well culture plate and incubated overnight at 37° C. in a humidified CO2 incubator. Cells were then treated with 1.3 μM milciclib or vehicle in DMEM/F12+2% FBS for 72 hours. Subsequently, cells were lysed in RIPA buffer, the supernatant was collected and used to perform ELISA assay as per the manufacturer's instructions. In orthotopic HCC mouse model, levels of serum marker alpha-fetoprotein (AFP) were determined on day 0, 6, 12, 18, 24, 30, 36, 42 and 48 using High Range AFP kit as per manufacturer's instructions.

HepG2.2.15 cells [2] = experiment: Wound healing assay; format: cell-based, human; details: scratched monolayer of HepG2.2.15 cells, 96 hours, vs vehicle control
Method: (§2) Cells were seeded at a density of 500,000 cells/2 mL/well on to a collagen-coated 6-well culture plate and incubated overnight in a humidified CO2 incubator at 37° C. to form a uniform monolayer. The monolayer was then scratched in a straight line with a new 10 μL pipette tip across the center of the well. After scratching, cells were washed with sterile PBS once to remove detached cells. Subsequently, wells were replenished with fresh DMEM/F12 containing 2% FBS and the test article either alone or in combination with milciclib. […] Images were analyzed using SlideBook™ 5 software. The values were expressed as a percentage of migration. See Saxena N K, Sharma D, Ding X, et al. Concomitant activation of the JAK/STAT, PI3K/AKT, and ERK signaling is involved in leptin-mediated promotion of invasion and migration of hepatocellular carcinoma cells. Cancer Res. 2007; 67: 2497-2507.

MHCC97L cells = experiment: Wound healing assay; format: cell-based, human; details: scratched monolayer of MHCC97L cells, 96 hours, vs vehicle control
Method: as §2

[3] = tested on: MHCC97H human liver cells; experiment: Orthotopic tumor induction in athymic nude mice; format: in vivo; details: oral, once daily day 12 to 47; milciclib 30 mg/kg/day, sorafenib 20 mg/kg/day; vs vehicle
Method: Mouse experiments were performed in accordance with the guidelines approved by the Institutional Animal Care and use committee of Washington Biotechnology Inc (Baltimore, Md.) where the studies were conducted. (FIG. 66) Test agents were dissolved in chremophor/ethanol (1:1) to make a 5× stock solution and diluted in water when used. MHCC97H human liver cells (5×106) in PBS were mixed with 20% Matrigel and then inoculated orthotopically into the right flank of female Balb/c nude mice. Seven days after cell inoculation, the mice were randomly allocated to either the treatment group (n=12) or the control group (n=12) based on the levels of AFP. The daily animal inspection was conducted for general appearance and tumor growth. Milciclib (30 mg/Kg), sorafenib (20 mg/Kg), milciclib+sorafenib or the corresponding vehicle was given orally to individual mice once daily from day 12 until day 47. After completion of the treatment at day 48, animals were euthanized and blood, liver tissues and tumor were collected for gene expression and mechanistic assays. Liver tumors developed 100% of animals challenged with orthotopic MHCC97H injection.

alpha-fetoprotein (AFP) = experiment: Serum AFP in orthotopic HCC mouse model; format: in vivo, mice; details: milciclib 30 mg/kg, sorafenib 20 mg/kg, oral, vs vehicle
Method: as §1
Mouse experiments were performed in accordance with the guidelines approved by the Institutional Animal Care and use committee of Washington Biotechnology Inc (Baltimore, Md.) where the studies were conducted. (FIG. 66) Test agents were dissolved in chremophor/ethanol (1:1) to make a 5× stock solution and diluted in water when used. MHCC97H human liver cells (5×106) in PBS were mixed with 20% Matrigel and then inoculated orthotopically into the right flank of female Balb/c nude mice. Seven days after cell inoculation, the mice were randomly allocated to either the treatment group (n=12) or the control group (n=12) based on the levels of AFP. The daily animal inspection was conducted for general appearance and tumor growth. […]

miR-221 and miR-222 = experiment: miRNA isolation and expression analysis of tumor tissues; format: in vivo; details: tumor tissues from orally treated mice, vs vehicle
Method: miRNA from athymic nude mice following treatment with vehicle, milciclib, sorafenib, or milciclib+sorafenib was isolated from Total RNA using the TaqMan Advanced miRNA cDNA Synthesis Kit (Thermo Fisher Scientific, Rockford, Ill.) according to the manufacturer's instructions. miRNA-221 and miR-222 quantifications were performed in duplicates using TaqMan Advanced miRNA Assay (Thermo Fisher Scientific, Rockford, Ill.) with a sample dilution of 1:10. The PCR mixture was incubated at 95° C. for 20 seconds, followed by 40 cycles of 95° C. for 3 seconds and 60° C. for 30 seconds. Results were normalized to hsa-miR-192-5p as reference miRNA and the relative gene expression calculated as 2−ΔCT was expressed as fold increase over control samples.
Tumor tissues from mice treated with vehicle, sorafenib, milciclib, milciclib+sorafenib and normal liver tissues from naïve untreated mice were collected and levels of miR-221 and miR-222 were determined. The levels of both of miR-221 and miR-222 were elevated in tumors from vehicle treated mice.

[4] = phase I, cited from earlier work

CNC(=O)c1nn(C)c2c1C(C)(C)Cc1cnc(Nc3ccc(N4CCN(C)CC4)cc3)nc1-2 [MILCICLIB, N,1,4,4-tetramethyl-8-((4-(4-methylpiperazin-1-yl)phenyl)amino)-4,5-dihydro-1H-pyrazolo[4,3-h]quinazoline-3-carboxamide]
IC50 (HepG2.2.15 cells [1]): 1160 nM
AFP levels (Alphafetoprotein (AFP)): Appreciably lower
cell migration (HepG2.2.15 cells [2]): reduced cell migration
cell migration (MHCC97L cells): reduced cell migration
reducing tumor growth [3]: 20%
serum AFP levels (alpha-fetoprotein (AFP)): Significantly lower
expression of miR-221 and miR-222 (miR-221 and miR-222): significantly reduced
tolerability ([4]; oral treatment, patients with advanced solid malignancies): well-tolerated
RP2D ([4]; oral): 150 mg/day
major toxicity profile ([4]; reversible upon treatment suspension): tremors and gastrointestinal toxicity
